The results in this text go back to ChEMBL document CHEMBL4190240, “Conventional and microwave-assisted synthesis of new 1H-benzimidazole-thiazolidinedione derivatives: A potential anticancer scaffold” (Eur J Med Chem, 2017).

Bounds are passed on as bounds.

One data set has as its system PC-3. Put plainly: Cytotoxicity against human PC3 cells assessed as cell growth inhibition after 48 hrs by MTT assay. Format: functional, cell-based. The conditions noted are these: PC-3, 48 h.
The subject of another data set is HeLa. Put plainly: Cytotoxicity against human HeLa cells assessed as cell growth inhibition after 48 hrs by MTT assay. It counts as functional, cell-based. For orientation: Formazan colour is commonly taken as a measure of viable cells.
The test system of another data set is A549. The experiment in a line: Cytotoxicity against human A549 cells assessed as cell growth inhibition after 48 hrs by MTT assay. It counts as functional, cell-based. The conditions noted are these: A549, 48 h.
Another data set relates to HT-1080. Put plainly: Cytotoxicity against human HT1080 cells assessed as cell growth inhibition after 48 hrs by MTT assay. It counts as functional, cell-based. To be noted: HT-1080, 48 h.
The subject of a further data set is HEK-293T. Put plainly: Cytotoxicity against HEK293T cells assessed as cell growth inhibition after 48 hrs by MTT assay. Format: cell-based. To be noted: Homo sapiens.
The test system of another data set is MDA-MB-231. The experiment in a line: Cytotoxicity against human MDA-MB-231 cells assessed as cell growth inhibition after 48 hrs by MTT assay. Format: functional, cell-based. The conditions noted are these: MDA-MB-231, 48 h.
Data set [1] in a line: Selectivity index, ratio of IC50 for HEK293T cells to IC50 for human MDA-MB-231 cells. Format: toxicity. To be noted: HEK293T cells versus MDA-MB-231 cells, read-out: Ratio IC50.
Data set [2] in a line: Selectivity index, ratio of IC50 for HEK293T cells to IC50 for human PC3 cells. To be noted: HEK293T cells versus PC3 cells, read-out: Ratio IC50. It counts as toxicity.
Data set [3] can be described thus: Selectivity index, ratio of IC50 for HEK293T cells to IC50 for human HeLa cells. Format: toxicity. The conditions noted are these: HEK293T cells versus HeLa cells, read-out: Ratio IC50.
Data set [4] can be described thus: Selectivity index, ratio of IC50 for HEK293T cells to IC50 for human A549 cells. Format: toxicity. The conditions noted are these: HEK293T cells versus A549 cells, read-out: Ratio IC50.
The nature of data set [5]: Selectivity index, ratio of IC50 for HEK293T cells to IC50 for human HT1080 cells. It counts as toxicity. The conditions noted are these: HEK293T cells versus HT1080 cells, read-out: Ratio IC50.

As a reminder, the IC50 is the concentration that gives 50% inhibition. On to `COc1cc(-c2nc3cc(/C=C4\SC(=O)N(CC(=O)N5CCCCC5)C4=O)ccc3[nH]2)cc(OC)c1OC`, for which the IC50 amounted to 14.7 µM in the data set with PC-3; 23.3 µM in the data set on HeLa; 0.98 µM in the data set with A549; 3.65 µM in the data set with HT-1080; 21.5 µM in the data set on HEK-293T; 34.9 µM with MDA-MB-231.

Take `COc1cc(OC)c(-c2nc3cc(/C=C4\SC(=O)N(Cc5cccc(C)c5)C4=O)ccc3[nH]2)cc1OC`: the IC50 in the data set on PC-3 was 0.63 µM; with HeLa, 0.18 µM; with A549, 0.13 µM; in the data set with HT-1080, 0.19 µM; with HEK-293T it was 3.35 µM; with MDA-MB-231, 1.78 µM. For the same molecule, the selectivity ratio in [1] amounted to 1.9; in [2], 5.3; in data set [3] it was 18.6; in data set [4], 25.8; in [5], 17.6.

On to `COc1ccc(-c2nc3cc(/C=C4\SC(=O)N(CC(=O)N5CCOCC5)C4=O)ccc3[nH]2)cc1OC`, for which the IC50 in the data set with PC-3 was over 50 µM; in the data set on HeLa it was 7.51 µM; in the data set on A549, 8.93 µM; with HT-1080, 3.32 µM; in the data set with HEK-293T, over 50 µM; in the data set on MDA-MB-231, over 50 µM.

With `COc1cc(OC)c(-c2nc3cc(/C=C4\SC(=O)N(CC(=O)N5CCCCC5)C4=O)ccc3[nH]2)cc1OC`, the IC50 in the data set with PC-3 was over 50 µM; in the data set with HeLa, 6.89 µM; in the data set with A549, 14.5 µM; in the data set on HT-1080, 8.76 µM; with HEK-293T it was over 50 µM; with MDA-MB-231 it was over 50 µM.

Take `COc1ccc(-c2nc3cc(/C=C4\SC(=O)NC4=O)ccc3[nH]2)cc1OC`: the IC50 with PC-3 turned out to be 8.72 µM; with HeLa it was 7.83 µM; with A549, 0.57 µM; with HT-1080 it was 2.43 µM; in the data set with HEK-293T, 21.7 µM; in the data set on MDA-MB-231, 13.6 µM.

For the molecule `COc1cc(-c2nc3cc(/C=C4\SC(=O)NC4=O)ccc3[nH]2)ccc1OCC(C)C`, the IC50 with PC-3 came out at 2.98 µM; in the data set with HeLa, 5.22 µM; in the data set with A549 it was 5.11 µM; in the data set with HT-1080, 4.45 µM; in the data set on HEK-293T, 14.1 µM; in the data set with MDA-MB-231, 7.78 µM.

In the case of `COc1ccc(-c2nc3cc(/C=C4\SC(=O)N(CC(=O)c5ccccc5)C4=O)ccc3[nH]2)cc1OC`, the IC50 in the data set on PC-3 is 0.43 µM; in the data set with HeLa it was 7.48 µM; in the data set with A549 it was 0.74 µM; in the data set on HT-1080, 0.59 µM; in the data set with HEK-293T, 27.8 µM; in the data set with MDA-MB-231, 2.04 µM.

For `COc1cc(-c2nc3cc(/C=C4\SC(=O)N(CC(=O)N5CCOCC5)C4=O)ccc3[nH]2)cc(OC)c1OC`, the IC50 with PC-3 was 5.94 µM; in the data set with HeLa it was 16.3 µM; in the data set on A549, 2.93 µM; in the data set with HT-1080, 1.68 µM; with HEK-293T, 18.8 µM; in the data set with MDA-MB-231 it was 14.9 µM.

Turning to `COc1cc(OC)c(-c2nc3cc(/C=C4\SC(=O)N(CC(=O)N5CCOCC5)C4=O)ccc3[nH]2)cc1OC`, the IC50 in the data set with PC-3 was found to be 11.7 µM; in the data set with HeLa, 0.51 µM; in the data set on A549, 0.66 µM; in the data set with HT-1080 it was 1.12 µM; in the data set on HEK-293T, 35.7 µM; in the data set on MDA-MB-231 it was 21.3 µM.

Turning to `COc1cc(-c2nc3cc(/C=C4\SC(=O)N(CC(=O)c5ccccc5)C4=O)ccc3[nH]2)cc(OC)c1OC`, the IC50 in the data set with PC-3 is over 50 µM; with HeLa it was 26.3 µM; in the data set with A549, 0.88 µM; in the data set with HT-1080, 0.57 µM; in the data set with HEK-293T, 13.6 µM; in the data set on MDA-MB-231, over 50 µM.

For `COc1cc(-c2nc3cc(/C=C4\SC(=O)N(CC(=O)N5CCCC5)C4=O)ccc3[nH]2)cc(OC)c1OC`, the IC50 worked out at 8.37 µM with PC-3; 4.78 µM with HeLa; 0.91 µM with A549; 2.47 µM in the data set on HT-1080; 12.7 µM in the data set with HEK-293T; 2.88 µM with MDA-MB-231.

As to `COc1cc(-c2nc3cc(/C=C4\SC(=O)N(Cc5cccc(C)c5)C4=O)ccc3[nH]2)cc(OC)c1OC`, the IC50 was 4.37 µM in the data set on PC-3; 1.44 µM in the data set with HeLa; 0.93 µM in the data set on A549; 4.58 µM in the data set with HT-1080; 18.9 µM in the data set on HEK-293T; 3.26 µM in the data set with MDA-MB-231.

For `COc1cc(OC)c(-c2nc3cc(/C=C4\SC(=O)NC4=O)ccc3[nH]2)cc1OC`, the half-maximal inhibitory concentration (IC50) with PC-3 is 6.32 µM; in the data set on HeLa, 15.4 µM; in the data set on A549, 1.84 µM; in the data set on HT-1080, 6.35 µM; in the data set with HEK-293T, 15.3 µM; with MDA-MB-231, 24.5 µM.

For the molecule `COc1cc(-c2nc3cc(/C=C4\SC(=O)NC4=O)ccc3[nH]2)cc(OC)c1OC`, the IC50 is 12 µM with PC-3; 1.67 µM with HeLa; 3.57 µM with A549; 3.12 µM in the data set with HT-1080; 13.6 µM in the data set with HEK-293T; 6.83 µM in the data set with MDA-MB-231.

For `COc1cc(-c2nc3cc(/C=C4\SC(=O)N(Cc5ccccc5)C4=O)ccc3[nH]2)cc(OC)c1OC`, the IC50 in the data set with PC-3 came to 2.5 µM; in the data set with HeLa, 0.95 µM; in the data set with A549, 0.67 µM; with HT-1080 it was 0.66 µM; with HEK-293T, 8.21 µM; in the data set with MDA-MB-231, 2.29 µM.

On to `COc1cc(CN2C(=O)S/C(=C\c3ccc4[nH]c(-c5cc(OC)c(OC)c(OC)c5)nc4c3)C2=O)cc(OC)c1OC`, for which the IC50 stood at 10.2 µM in the data set with PC-3; 2.24 µM in the data set with HeLa; 0.53 µM in the data set on A549; 0.98 µM in the data set on HT-1080; 16.6 µM with HEK-293T; 0.27 µM in the data set on MDA-MB-231.
